Laboratory results: PubChem BioAssay (NCI)
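A five-concentration, 48-hour dose response in 96-well plates underlies each endpoint, interpolated linearly between surrounding concentrations. Abbreviation: GI50, concentration required for 50% inhibition of growth. Definition used: TGI = concentration required for complete inhibition of growth.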

How the values were obtained:
Assay in all cases: NCI tumour cell line growth inhibition, 48 h
UACC-257 melanoma = system: UACC-257 melanoma
SNB-75 CNS = system: SNB-75 CNS
HCT-116 colon = system: HCT-116 colon
SNB-19 CNS = system: SNB-19 CNS
HS 578T breast = system: HS 578T breast
MDA-MB-231 breast = system: MDA-MB-231 breast
MCF7 breast = system: MCF7 breast
TK-10 renal = system: TK-10 renal
CAKI-1 renal = system: CAKI-1 renal
LOX IMVI melanoma = system: LOX IMVI melanoma
SK-MEL-2 melanoma = system: SK-MEL-2 melanoma
CCRF-CEM leukemia = system: CCRF-CEM leukemia
SF-268 CNS = system: SF-268 CNS
SK-MEL-5 melanoma = system: SK-MEL-5 melanoma
NCI-H460 lung = system: NCI-H460 lung
K-562 leukemia = system: K-562 leukemia
786-0 renal = system: 786-0 renal
SR leukemia = system: SR leukemia
BT-549 breast = system: BT-549 breast
HT29 colon = system: HT29 colon
UO-31 renal = system: UO-31 renal
HCC-2998 colon = system: HCC-2998 colon
HOP-92 NSCLC = system: HOP-92 NSCLC
NCI/ADR-RES ovarian = system: NCI/ADR-RES ovarian
SK-MEL-28 melanoma = system: SK-MEL-28 melanoma
U251 CNS = system: U251 CNS
T-47D breast = system: T-47D breast
RPMI-8226 leukemia = system: RPMI-8226 leukemia
SW-620 colon = system: SW-620 colon
OVCAR-5 ovarian = system: OVCAR-5 ovarian
SF-539 CNS = system: SF-539 CNS
DU-145 prostate = system: DU-145 prostate
SF-295 CNS = system: SF-295 CNS
COLO 205 colon = system: COLO 205 colon
A549 NSCLC = system: A549 NSCLC
SN12C renal = system: SN12C renal
KM12 colon = system: KM12 colon
M14 melanoma = system: M14 melanoma
NCI-H522 lung = system: NCI-H522 lung
MOLT-4 leukemia = system: MOLT-4 leukemia
NCI-H226 lung = system: NCI-H226 lung
OVCAR-3 ovarian = system: OVCAR-3 ovarian
SK-OV-3 ovarian = system: SK-OV-3 ovarian
MDA-MB-435 = system: MDA-MB-435
ACHN renal = system: ACHN renal
HL-60(TB) leukemia = system: HL-60(TB) leukemia
OVCAR-4 ovarian = system: OVCAR-4 ovarian
HOP-62 NSCLC = system: HOP-62 NSCLC
PC-3 prostate = system: PC-3 prostate
OVCAR-8 ovarian = system: OVCAR-8 ovarian
NCI-H23 lung = system: NCI-H23 lung
HCT-15 colon = system: HCT-15 colon
A498 renal = system: A498 renal
EKVX NSCLC = system: EKVX NSCLC
UACC-62 melanoma = system: UACC-62 melanoma
MALME-3M melanoma = system: MALME-3M melanoma
RXF 393 renal = system: RXF 393 renal
IGROV1 ovarian = system: IGROV1 ovarian

**Q.** `CC/C=C\C/C=C\C[C@H](O)C/C=C1/C(=O)C=C[C@@H]1C/C=C\CCCC(=O)OC` was tested. Which GI50 (UACC-257 melanoma) did it give?
**A.** 1.83 µM

**Q.** What about the TGI (UACC-257 melanoma) of the same compound?
**A.** 4.32 µM

**Q.** And the GI50 (SNB-75 CNS)?
**A.** 11.3 µM

**Q.** What about the TGI (SNB-75 CNS) of the same compound?
**A.** 24.6 µM

**Q.** And the GI50 (HCT-116 colon)?
**A.** 0.841 µM

**Q.** And the TGI (HCT-116 colon)?
**A.** 2.29 µM

**Q.** And the GI50 (SNB-19 CNS)?
**A.** 3.05 µM

**Q.** What about the TGI (SNB-19 CNS) of the same compound?
**A.** 13.7 µM

**Q.** What about the GI50 (HS 578T breast) of the same compound?
**A.** 6.59 µM

**Q.** What about the TGI (HS 578T breast) of the same compound?
**A.** 46.7 µM

**Q.** And the GI50 (MDA-MB-231 breast)?
**A.** 3 µM

**Q.** What about the TGI (MDA-MB-231 breast) of the same compound?
**A.** 10.3 µM

**Q.** And the GI50 (MCF7 breast)?
**A.** 0.329 µM

**Q.** And the TGI (MCF7 breast)?
**A.** 5.2 µM

**Q.** What about the GI50 (TK-10 renal) of the same compound?
**A.** 2.95 µM

**Q.** And the TGI (TK-10 renal)?
**A.** 7.68 µM

**Q.** What about the GI50 (CAKI-1 renal) of the same compound?
**A.** 3.41 µM

**Q.** And the TGI (CAKI-1 renal)?
**A.** 14.5 µM

**Q.** What about the GI50 (LOX IMVI melanoma) of the same compound?
**A.** 0.21 µM

**Q.** And the TGI (LOX IMVI melanoma)?
**A.** 0.493 µM

**Q.** What about the GI50 (SK-MEL-2 melanoma) of the same compound?
**A.** 1.72 µM

**Q.** What about the TGI (SK-MEL-2 melanoma) of the same compound?
**A.** 3.79 µM

**Q.** What about the GI50 (CCRF-CEM leukemia) of the same compound?
**A.** 0.315 µM

**Q.** And the TGI (CCRF-CEM leukemia)?
**A.** 1.77 µM

**Q.** And the GI50 (SF-268 CNS)?
**A.** 2.57 µM

**Q.** What about the TGI (SF-268 CNS) of the same compound?
**A.** 11 µM

**Q.** What about the GI50 (SK-MEL-5 melanoma) of the same compound?
**A.** 1.54 µM

**Q.** And the TGI (SK-MEL-5 melanoma)?
**A.** 2.93 µM

**Q.** What about the GI50 (NCI-H460 lung) of the same compound?
**A.** 3.2 µM

**Q.** And the TGI (NCI-H460 lung)?
**A.** 10.7 µM

**Q.** And the GI50 (K-562 leukemia)?
**A.** 0.546 µM

**Q.** What about the TGI (K-562 leukemia) of the same compound?
**A.** 12.5 µM

**Q.** And the GI50 (786-0 renal)?
**A.** 1.82 µM

**Q.** What about the TGI (786-0 renal) of the same compound?
**A.** 3.52 µM

**Q.** And the GI50 (SR leukemia)?
**A.** 0.281 µM

**Q.** What about the TGI (SR leukemia) of the same compound?
**A.** 1.87 µM

**Q.** And the GI50 (BT-549 breast)?
**A.** 1.83 µM

**Q.** And the TGI (BT-549 breast)?
**A.** 4.01 µM

**Q.** And the GI50 (HT29 colon)?
**A.** 1.48 µM

**Q.** And the TGI (HT29 colon)?
**A.** 3.21 µM

**Q.** And the GI50 (UO-31 renal)?
**A.** 1.55 µM

**Q.** And the TGI (UO-31 renal)?
**A.** 3.03 µM

**Q.** What about the GI50 (HCC-2998 colon) of the same compound?
**A.** 2.03 µM

**Q.** What about the TGI (HCC-2998 colon) of the same compound?
**A.** 3.48 µM

**Q.** And the GI50 (HOP-92 NSCLC)?
**A.** 2.62 µM

**Q.** And the TGI (HOP-92 NSCLC)?
**A.** 6.02 µM

**Q.** What about the GI50 (NCI/ADR-RES ovarian) of the same compound?
**A.** 1.78 µM

**Q.** What about the TGI (NCI/ADR-RES ovarian) of the same compound?
**A.** 7.41 µM

**Q.** What about the GI50 (SK-MEL-28 melanoma) of the same compound?
**A.** 1.78 µM

**Q.** What about the TGI (SK-MEL-28 melanoma) of the same compound?
**A.** 4 µM

**Q.** And the GI50 (U251 CNS)?
**A.** 1.45 µM

**Q.** What about the TGI (U251 CNS) of the same compound?
**A.** 2.83 µM

**Q.** What about the GI50 (T-47D breast) of the same compound?
**A.** 2.1 µM

**Q.** What about the TGI (T-47D breast) of the same compound?
**A.** 9.38 µM

**Q.** And the GI50 (RPMI-8226 leukemia)?
**A.** 0.572 µM

**Q.** And the TGI (RPMI-8226 leukemia)?
**A.** 7.32 µM

**Q.** And the GI50 (SW-620 colon)?
**A.** 0.834 µM

**Q.** And the TGI (SW-620 colon)?
**A.** 10.3 µM

**Q.** And the GI50 (OVCAR-5 ovarian)?
**A.** 2.75 µM

**Q.** What about the TGI (OVCAR-5 ovarian) of the same compound?
**A.** 6.94 µM

**Q.** What about the GI50 (SF-539 CNS) of the same compound?
**A.** 2.53 µM

**Q.** And the TGI (SF-539 CNS)?
**A.** 6.09 µM

**Q.** And the GI50 (DU-145 prostate)?
**A.** 3.6 µM

**Q.** What about the TGI (DU-145 prostate) of the same compound?
**A.** 14.6 µM

**Q.** And the GI50 (SF-295 CNS)?
**A.** 2.3 µM

**Q.** What about the TGI (SF-295 CNS) of the same compound?
**A.** 5.56 µM

**Q.** And the GI50 (COLO 205 colon)?
**A.** 1.77 µM

**Q.** And the TGI (COLO 205 colon)?
**A.** 3.78 µM

**Q.** And the GI50 (A549 NSCLC)?
**A.** 2.4 µM

**Q.** What about the TGI (A549 NSCLC) of the same compound?
**A.** 5.62 µM

**Q.** And the GI50 (SN12C renal)?
**A.** 1.9 µM

**Q.** And the TGI (SN12C renal)?
**A.** 5.01 µM

**Q.** And the GI50 (KM12 colon)?
**A.** 1.8 µM

**Q.** What about the TGI (KM12 colon) of the same compound?
**A.** 5.02 µM

**Q.** What about the GI50 (M14 melanoma) of the same compound?
**A.** 1.43 µM

**Q.** And the TGI (M14 melanoma)?
**A.** 3.53 µM

**Q.** What about the GI50 (NCI-H522 lung) of the same compound?
**A.** 1.03 µM

**Q.** And the TGI (NCI-H522 lung)?
**A.** 2.36 µM

**Q.** What about the GI50 (MOLT-4 leukemia) of the same compound?
**A.** 1.2 µM

**Q.** And the TGI (MOLT-4 leukemia)?
**A.** 4.41 µM

**Q.** And the GI50 (NCI-H226 lung)?
**A.** 1.92 µM

**Q.** And the TGI (NCI-H226 lung)?
**A.** 3.79 µM

**Q.** What about the GI50 (OVCAR-3 ovarian) of the same compound?
**A.** 0.799 µM

**Q.** What about the TGI (OVCAR-3 ovarian) of the same compound?
**A.** 2.2 µM

**Q.** What about the GI50 (SK-OV-3 ovarian) of the same compound?
**A.** 5.27 µM

**Q.** What about the TGI (SK-OV-3 ovarian) of the same compound?
**A.** 15 µM

**Q.** And the GI50 (MDA-MB-435)?
**A.** 1.21 µM

**Q.** What about the TGI (MDA-MB-435) of the same compound?
**A.** 6.26 µM

**Q.** What about the GI50 (ACHN renal) of the same compound?
**A.** 1.72 µM

**Q.** And the TGI (ACHN renal)?
**A.** 3.4 µM

**Q.** What about the GI50 (HL-60(TB) leukemia) of the same compound?
**A.** 1.71 µM

**Q.** And the TGI (HL-60(TB) leukemia)?
**A.** 6.06 µM

**Q.** And the GI50 (OVCAR-4 ovarian)?
**A.** 4.06 µM

**Q.** And the TGI (OVCAR-4 ovarian)?
**A.** 20.2 µM

**Q.** And the GI50 (HOP-62 NSCLC)?
**A.** 1.65 µM

**Q.** And the TGI (HOP-62 NSCLC)?
**A.** 4.1 µM

**Q.** And the GI50 (PC-3 prostate)?
**A.** 2.54 µM

**Q.** And the TGI (PC-3 prostate)?
**A.** 6.68 µM

**Q.** What about the GI50 (OVCAR-8 ovarian) of the same compound?
**A.** 0.774 µM

**Q.** What about the TGI (OVCAR-8 ovarian) of the same compound?
**A.** 13 µM

**Q.** What about the GI50 (NCI-H23 lung) of the same compound?
**A.** 2.19 µM

**Q.** And the TGI (NCI-H23 lung)?
**A.** 5.29 µM

**Q.** What about the GI50 (HCT-15 colon) of the same compound?
**A.** 0.494 µM

**Q.** And the TGI (HCT-15 colon)?
**A.** 2.38 µM

**Q.** And the GI50 (A498 renal)?
**A.** 2.48 µM

**Q.** And the TGI (A498 renal)?
**A.** 4.67 µM

**Q.** What about the GI50 (EKVX NSCLC) of the same compound?
**A.** 3.15 µM

**Q.** What about the TGI (EKVX NSCLC) of the same compound?
**A.** 10.9 µM

**Q.** And the GI50 (UACC-62 melanoma)?
**A.** 0.714 µM

**Q.** What about the TGI (UACC-62 melanoma) of the same compound?
**A.** 2.85 µM

**Q.** And the GI50 (MALME-3M melanoma)?
**A.** 1.92 µM

**Q.** What about the TGI (MALME-3M melanoma) of the same compound?
**A.** 4.88 µM

**Q.** And the GI50 (RXF 393 renal)?
**A.** 1.97 µM

**Q.** What about the TGI (RXF 393 renal) of the same compound?
**A.** 3.61 µM

**Q.** What about the GI50 (IGROV1 ovarian) of the same compound?
**A.** 2.86 µM

**Q.** What about the TGI (IGROV1 ovarian) of the same compound?
**A.** 7.86 µM
